The kinase profiling compilation of Christmann-Franck et al. (2016)

Columns and labels:
Experiment in all cases: KINOMEscan competition binding
Conditions in all cases: compound 10.0 µM
[1] = test system: EIF2AK4 KD2 (human), Q9P2K8 [S808G]
[2] = biological target: TIE1 (human) (UniProt P35590)
[3] = biological target: CSNK1G3 (human) (UniProt Q9Y6M4)
[4] = biological target: EPHA5 (human) (UniProt P54756)
[5] = biological target: CDK9 (human) (UniProt P50750)
[6] = biological target: DMPK (human) (UniProt Q09013)
[7] = biological target: PIK3C2B (human) (UniProt O00750)
PIK3C2B (human), sequence (O00750 whole entry, looked up): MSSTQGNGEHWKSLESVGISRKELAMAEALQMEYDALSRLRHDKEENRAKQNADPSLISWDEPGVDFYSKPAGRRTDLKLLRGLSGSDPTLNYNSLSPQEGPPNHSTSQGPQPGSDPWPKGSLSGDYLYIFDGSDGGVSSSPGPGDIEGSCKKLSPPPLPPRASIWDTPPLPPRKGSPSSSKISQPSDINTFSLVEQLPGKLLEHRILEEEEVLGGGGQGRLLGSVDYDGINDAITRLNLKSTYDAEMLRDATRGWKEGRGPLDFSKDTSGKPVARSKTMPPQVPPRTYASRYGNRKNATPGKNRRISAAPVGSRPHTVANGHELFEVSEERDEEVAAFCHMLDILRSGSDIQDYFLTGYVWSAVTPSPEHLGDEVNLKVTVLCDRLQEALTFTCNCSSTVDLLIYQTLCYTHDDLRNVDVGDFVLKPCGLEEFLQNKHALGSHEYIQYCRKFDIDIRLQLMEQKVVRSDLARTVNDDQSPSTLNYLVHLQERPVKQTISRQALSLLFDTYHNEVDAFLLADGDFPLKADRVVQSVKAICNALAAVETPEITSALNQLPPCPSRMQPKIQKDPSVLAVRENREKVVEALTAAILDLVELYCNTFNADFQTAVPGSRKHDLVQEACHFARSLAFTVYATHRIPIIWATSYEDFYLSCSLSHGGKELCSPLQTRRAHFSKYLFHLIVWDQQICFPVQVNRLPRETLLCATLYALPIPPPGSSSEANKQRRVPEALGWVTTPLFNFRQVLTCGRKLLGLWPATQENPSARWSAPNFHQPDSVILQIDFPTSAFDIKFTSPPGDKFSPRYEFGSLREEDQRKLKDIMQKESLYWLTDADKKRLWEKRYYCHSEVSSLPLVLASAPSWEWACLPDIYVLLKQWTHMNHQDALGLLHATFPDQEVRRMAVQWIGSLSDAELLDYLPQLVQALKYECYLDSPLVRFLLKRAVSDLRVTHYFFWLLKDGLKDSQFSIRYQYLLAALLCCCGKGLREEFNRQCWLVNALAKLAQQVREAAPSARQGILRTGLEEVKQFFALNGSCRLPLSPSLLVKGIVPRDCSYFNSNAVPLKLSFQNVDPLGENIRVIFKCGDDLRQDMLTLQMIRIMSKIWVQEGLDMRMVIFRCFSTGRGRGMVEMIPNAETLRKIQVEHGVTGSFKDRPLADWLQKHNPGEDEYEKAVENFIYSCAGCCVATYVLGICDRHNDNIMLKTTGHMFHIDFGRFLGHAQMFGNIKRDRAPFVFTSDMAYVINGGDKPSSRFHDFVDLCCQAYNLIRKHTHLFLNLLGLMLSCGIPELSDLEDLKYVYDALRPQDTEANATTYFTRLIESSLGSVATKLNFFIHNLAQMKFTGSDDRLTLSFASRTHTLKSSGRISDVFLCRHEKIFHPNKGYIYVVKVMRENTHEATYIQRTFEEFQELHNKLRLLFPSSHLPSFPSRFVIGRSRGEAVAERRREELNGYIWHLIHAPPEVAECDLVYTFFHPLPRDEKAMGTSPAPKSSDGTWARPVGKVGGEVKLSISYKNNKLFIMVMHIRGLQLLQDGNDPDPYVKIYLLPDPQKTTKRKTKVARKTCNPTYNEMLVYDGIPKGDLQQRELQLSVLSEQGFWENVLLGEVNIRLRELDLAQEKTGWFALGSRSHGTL

[8] = biological target: DAPK2 (human) (UniProt Q9UIK4)
[9] = biological target: PIM1 (human) (UniProt P11309)
PIM1 (human), sequence (P11309 whole entry, looked up): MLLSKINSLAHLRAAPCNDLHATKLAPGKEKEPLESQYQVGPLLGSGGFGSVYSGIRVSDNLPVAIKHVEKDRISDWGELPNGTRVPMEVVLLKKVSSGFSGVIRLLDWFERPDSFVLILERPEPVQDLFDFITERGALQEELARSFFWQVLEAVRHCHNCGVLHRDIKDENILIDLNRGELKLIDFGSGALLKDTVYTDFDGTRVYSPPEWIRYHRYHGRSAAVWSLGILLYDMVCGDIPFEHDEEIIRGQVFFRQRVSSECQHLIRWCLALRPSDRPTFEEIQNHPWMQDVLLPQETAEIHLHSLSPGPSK

[10] = biological target: FLT4 (human) (UniProt P35916)
[11] = biological target: PRKCE (human) (UniProt Q02156)
[12] = biological target: FLT3 (human) (UniProt P36888)
[13] = biological target: NEK2 (human) (UniProt P51955)
[14] = biological target: GSK3B (human) (UniProt P49841)
[15] = biological target: MAPK8 (human) (UniProt P45983)
[16] = test system: EGFR (human), P00533 [A750P; 747-749 del]
[17] = biological target: MAPK6 (human) (UniProt Q16659)
[18] = test system: EGFR (human), P00533 [G719C]
[19] = biological target: RPS6KA2 KD1 (human) (UniProt Q15349)
[20] = biological target: NUAK2 (human) (UniProt Q9H093)
[21] = test system: EGFR (human), P00533 [P753S; 747-752 del]
[22] = biological target: MAPKAPK5 (human) (UniProt Q8IW41)
[23] = biological target: FGFR2 (human) (UniProt P21802)
[24] = biological target: STK11 (human) (UniProt Q15831)
[25] = biological target: MAPK7 (human) (UniProt Q13164)
[26] = biological target: FGFR1 (human) (UniProt P11362)
[27] = biological target: IGF1R (human) (UniProt P08069)
[28] = biological target: MAP3K4 (human) (UniProt Q9Y6R4)
[29] = biological target: NLK (human) (UniProt Q9UBE8)
NLK (human), sequence (Q9UBE8 whole entry, looked up): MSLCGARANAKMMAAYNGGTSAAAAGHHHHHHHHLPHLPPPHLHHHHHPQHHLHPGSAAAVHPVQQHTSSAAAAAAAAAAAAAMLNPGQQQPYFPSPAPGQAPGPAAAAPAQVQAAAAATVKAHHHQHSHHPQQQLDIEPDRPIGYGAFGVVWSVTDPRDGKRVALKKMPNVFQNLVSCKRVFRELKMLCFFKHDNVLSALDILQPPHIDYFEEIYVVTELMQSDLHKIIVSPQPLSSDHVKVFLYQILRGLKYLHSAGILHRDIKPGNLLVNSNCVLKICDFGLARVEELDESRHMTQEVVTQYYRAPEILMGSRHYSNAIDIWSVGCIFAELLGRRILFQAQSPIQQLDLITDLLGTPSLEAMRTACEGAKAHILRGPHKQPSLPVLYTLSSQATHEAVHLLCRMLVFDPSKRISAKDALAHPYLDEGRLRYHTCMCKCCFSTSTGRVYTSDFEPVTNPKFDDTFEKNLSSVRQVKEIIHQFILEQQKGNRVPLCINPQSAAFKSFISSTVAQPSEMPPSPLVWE

[30] = biological target: BMPR1B (human) (UniProt O00238)
BMPR1B (human), sequence (O00238 whole entry, looked up): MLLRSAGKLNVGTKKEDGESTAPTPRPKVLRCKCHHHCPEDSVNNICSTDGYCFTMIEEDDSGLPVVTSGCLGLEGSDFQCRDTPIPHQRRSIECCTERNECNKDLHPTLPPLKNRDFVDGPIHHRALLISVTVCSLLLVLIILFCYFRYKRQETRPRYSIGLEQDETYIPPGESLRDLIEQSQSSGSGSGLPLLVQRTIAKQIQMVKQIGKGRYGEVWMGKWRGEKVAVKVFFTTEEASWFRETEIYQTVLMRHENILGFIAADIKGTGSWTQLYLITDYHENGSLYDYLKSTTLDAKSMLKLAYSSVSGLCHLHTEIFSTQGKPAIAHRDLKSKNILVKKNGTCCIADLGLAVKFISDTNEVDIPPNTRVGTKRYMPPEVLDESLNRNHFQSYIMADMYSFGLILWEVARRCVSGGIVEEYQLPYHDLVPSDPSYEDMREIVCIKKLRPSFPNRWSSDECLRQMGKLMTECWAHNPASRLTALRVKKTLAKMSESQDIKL

[31] = biological target: CDK5 (human) (UniProt Q00535)
[32] = biological target: AKT2 (human) (UniProt P31751)
[33] = biological target: ULK1 (human) (UniProt O75385)
[34] = biological target: PTK2 (human) (UniProt Q05397)
PTK2 (human), sequence (Q05397 whole entry, looked up): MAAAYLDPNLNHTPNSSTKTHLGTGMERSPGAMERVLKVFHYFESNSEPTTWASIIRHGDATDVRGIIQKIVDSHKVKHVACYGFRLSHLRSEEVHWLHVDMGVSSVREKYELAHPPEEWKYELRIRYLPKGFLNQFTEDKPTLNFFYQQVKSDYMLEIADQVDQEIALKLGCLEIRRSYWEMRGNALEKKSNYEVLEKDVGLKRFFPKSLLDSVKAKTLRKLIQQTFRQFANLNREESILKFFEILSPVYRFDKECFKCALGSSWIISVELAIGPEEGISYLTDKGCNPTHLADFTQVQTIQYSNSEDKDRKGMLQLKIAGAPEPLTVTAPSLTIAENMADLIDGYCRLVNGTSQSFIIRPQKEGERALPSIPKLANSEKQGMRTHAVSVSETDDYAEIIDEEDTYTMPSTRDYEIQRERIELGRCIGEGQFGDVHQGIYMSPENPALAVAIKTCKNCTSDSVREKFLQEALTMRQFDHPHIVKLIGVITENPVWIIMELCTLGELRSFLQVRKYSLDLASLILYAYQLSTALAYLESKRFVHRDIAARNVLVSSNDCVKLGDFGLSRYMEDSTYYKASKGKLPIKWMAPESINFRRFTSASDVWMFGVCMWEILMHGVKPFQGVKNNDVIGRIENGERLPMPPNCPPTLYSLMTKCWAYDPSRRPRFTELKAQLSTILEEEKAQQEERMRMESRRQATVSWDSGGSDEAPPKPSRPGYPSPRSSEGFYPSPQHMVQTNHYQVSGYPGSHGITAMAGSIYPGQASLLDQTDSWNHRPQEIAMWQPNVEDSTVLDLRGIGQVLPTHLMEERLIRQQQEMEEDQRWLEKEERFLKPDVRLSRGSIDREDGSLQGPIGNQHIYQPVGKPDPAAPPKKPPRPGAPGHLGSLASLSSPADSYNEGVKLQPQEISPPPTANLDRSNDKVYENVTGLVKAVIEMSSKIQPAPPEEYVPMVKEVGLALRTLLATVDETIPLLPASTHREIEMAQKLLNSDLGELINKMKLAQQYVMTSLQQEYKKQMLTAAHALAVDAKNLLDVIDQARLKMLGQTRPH

[35] = biological target: TYK2 JH1 catalytic (human) (UniProt P29597)
[36] = biological target: CIT (human) (UniProt O14578)
[37] = biological target: EPHB1 (human) (UniProt P54762)
EPHB1 (human), sequence (P54762 whole entry, looked up): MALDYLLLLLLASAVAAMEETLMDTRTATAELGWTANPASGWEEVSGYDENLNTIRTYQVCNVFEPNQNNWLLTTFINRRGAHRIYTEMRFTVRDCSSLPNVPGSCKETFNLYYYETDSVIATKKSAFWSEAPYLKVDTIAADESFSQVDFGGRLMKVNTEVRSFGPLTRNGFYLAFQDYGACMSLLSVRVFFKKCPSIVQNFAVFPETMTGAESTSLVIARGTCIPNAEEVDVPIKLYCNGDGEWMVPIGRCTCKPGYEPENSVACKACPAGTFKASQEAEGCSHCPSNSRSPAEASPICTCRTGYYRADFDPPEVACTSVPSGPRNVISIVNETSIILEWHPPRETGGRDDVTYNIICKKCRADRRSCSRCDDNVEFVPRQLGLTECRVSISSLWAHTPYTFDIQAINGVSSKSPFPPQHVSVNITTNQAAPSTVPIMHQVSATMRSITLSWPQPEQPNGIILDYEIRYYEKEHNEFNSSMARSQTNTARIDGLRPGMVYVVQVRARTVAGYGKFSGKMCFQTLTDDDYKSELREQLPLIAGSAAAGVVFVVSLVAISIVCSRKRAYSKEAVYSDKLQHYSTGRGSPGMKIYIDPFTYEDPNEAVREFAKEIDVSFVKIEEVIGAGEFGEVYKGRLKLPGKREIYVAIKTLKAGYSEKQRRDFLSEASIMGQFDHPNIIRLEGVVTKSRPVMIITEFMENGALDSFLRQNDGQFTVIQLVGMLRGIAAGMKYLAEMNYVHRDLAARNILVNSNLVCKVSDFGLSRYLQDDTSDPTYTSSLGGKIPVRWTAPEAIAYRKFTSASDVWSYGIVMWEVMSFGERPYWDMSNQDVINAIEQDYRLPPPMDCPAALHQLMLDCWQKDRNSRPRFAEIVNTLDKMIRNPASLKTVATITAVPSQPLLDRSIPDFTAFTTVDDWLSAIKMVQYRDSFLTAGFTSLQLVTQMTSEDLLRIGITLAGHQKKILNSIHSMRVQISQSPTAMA

[38] = biological target: CSNK1G2 (human) (UniProt P78368)
[39] = biological target: PDGFRB (human) (UniProt P09619)
[40] = biological target: MAPKAPK2 (human) (UniProt P49137)
[41] = biological target: LTK (human) (UniProt P29376)
[42] = biological target: TLK1 (human) (UniProt Q9UKI8)

## CCOc1cc(N2CCC(N3CCCCC3)CC2)ccc1Nc1nc(Nc2ccccc2S(=O)(=O)C(C)C)c2cn[nH]c2n1
[1]
  kinase still bound, per cent of control: 100%
[2]
  kinase still bound, per cent of control: 76%
[3]
  kinase still bound, per cent of control: 50%
[4]
  kinase still bound, per cent of control: 100%
[5]
  kinase still bound, per cent of control: 100%
[6]
  kinase still bound, per cent of control: 70%
[7]
  kinase still bound, per cent of control: 100%
[8]
  kinase still bound, per cent of control: 64%
[9]
  kinase still bound, per cent of control: 100%
[10]
  kinase still bound, per cent of control: 100%
[11]
  kinase still bound, per cent of control: 62%
[12]
  kinase still bound, per cent of control: 100%
[13]
  kinase still bound, per cent of control: 100%
[14]
  kinase still bound, per cent of control: 84%
[15]
  kinase still bound, per cent of control: 4.3%
[16]
  kinase still bound, per cent of control: 10%
[17]
  kinase still bound, per cent of control: 94%
[18]
  kinase still bound, per cent of control: 81%
[19]
  kinase still bound, per cent of control: 77%
[20]
  kinase still bound, per cent of control: 27%
[21]
  kinase still bound, per cent of control: 40%
[22]
  kinase still bound, per cent of control: 100%
[23]
  kinase still bound, per cent of control: 100%
[24]
  kinase still bound, per cent of control: 100%
[25]
  kinase still bound, per cent of control: 0.9%
[26]
  kinase still bound, per cent of control: 100%
[27]
  kinase still bound, per cent of control: 0.25%
[28]
  kinase still bound, per cent of control: 100%
[29]
  kinase still bound, per cent of control: 97%
[30]
  kinase still bound, per cent of control: 49%
[31]
  kinase still bound, per cent of control: 96%
[32]
  kinase still bound, per cent of control: 100%
[33]
  kinase still bound, per cent of control: 1.8%
[34]
  kinase still bound, per cent of control: 0.2%
[35]
  kinase still bound, per cent of control: 87%
[36]
  kinase still bound, per cent of control: 100%
[37]
  kinase still bound, per cent of control: 100%
[38]
  kinase still bound, per cent of control: 46%
[39]
  kinase still bound, per cent of control: 69%
[40]
  kinase still bound, per cent of control: 100%
[41]
  kinase still bound, per cent of control: 1.7%
[42]
  kinase still bound, per cent of control: 75%
